Counter-ions that a name gives are not always drawn.

Experimental findings from patent US20210009542A1 (Calico Life Sciences LLC, priority 2018, published 2021) are described below.

The assay has as its target T1, His tagged PTPN2 (TC45) protein (Homo sapiens, UniProt P17706).
T1 construct: made in house
T1 sequence (P17706 with tags, fused parts or gaps isoform P17706-2): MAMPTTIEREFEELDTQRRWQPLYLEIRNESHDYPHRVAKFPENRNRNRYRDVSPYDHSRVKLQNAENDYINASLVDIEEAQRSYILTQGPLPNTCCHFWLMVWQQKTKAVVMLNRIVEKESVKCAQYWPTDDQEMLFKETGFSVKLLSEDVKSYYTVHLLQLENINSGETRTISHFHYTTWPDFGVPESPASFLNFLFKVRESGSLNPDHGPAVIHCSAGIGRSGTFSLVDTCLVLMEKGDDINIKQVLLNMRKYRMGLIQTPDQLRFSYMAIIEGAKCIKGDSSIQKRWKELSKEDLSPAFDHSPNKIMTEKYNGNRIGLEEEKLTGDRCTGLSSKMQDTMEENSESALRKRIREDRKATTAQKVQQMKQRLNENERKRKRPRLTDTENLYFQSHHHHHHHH
Briefly: Mobility shift assay (MSA) for potency of PTPN2 inhibitors. It counts as biochemical. Conditions: read-out: PTPN2 MSA IC50. The procedure: Compound activity was determined using in house His tagged PTPN2 (TC45) protein (SEQ ID NO: 1) in an in vitro enzymatic reaction. The enzymatic assay used to determine activity was a mobility shift assay using a LabChip EZ Reader by Caliper Life Sciences. The enzymatic reaction was carried out in assay buffer (50 mM HEPES pH 7.5, 1 mM EGTA, 10 mM EDTA, 0.01% Tween® 20, and 2 mM DTT). The compounds were dispensed on a white 384 well ProxiPlate™ (PerkinElmer Catalog #6008289) plate using the Labcyte Echo at varying concentrations (12 point, 1:3 dilution). The enzyme (at 0.5 nM) was incubated with compound for 10 minutes at room temperature. Then the substrate (phosphorylated insulin receptor probe sequence: ((OG488)-(NH—CH2—CH2—O—CH2—CH2—O—CH2—CO)-T-R-D-I-(PY)-E-T-D-Y-Y-R-K-K-NH2) (SEQ ID NO: 2) was added at […] to the plates and incubated for another 10 minutes at room temperature. Finally, a quench solution (water and 4-bromo-3-(2-oxo-2-propoxyethoxy)-5-(3-{[1-(phenylmethanesulfonyl)piperidin-4-yl]amino}phenyl)thiophene-2-carboxylic acid) was added to the plates, which were then run on the EZ Reader (excitation 488 nm, emission 530 nm) to measure % conversion (the amount of phosphorylated substrate which was de-phosphorylated by PTPN2). […] The % inhibition was then used to calculate the IC50 values.
For `O=C1CN(c2c(O)cc3ccc(C4=CCN(S(=O)(=O)c5ccsc5)C4)cc3c2F)S(=O)(=O)N1` [Compound 314, 5-{1-fluoro-3-hydroxy-7-[1-(thiophene-3-sulfonyl)-2,5-dihydro-1H-pyrrol-3-yl]naphthalen-2-yl}-1λ^6,2,5-thiadiazolidine-1,1,3-trione], the IC50 was below 0.001 µM.

Consider `COC(=O)[C@@H](N)CCOc1ccc2cc(O)c(N3CC(=O)NS3(=O)=O)c(F)c2c1` [Compound 317, methyl (2S)-2-amino-4-{[8-fluoro-6-hydroxy-7-(1,1,4-trioxo-1λ^6,2,5-thiadiazolidin-2-yl)naphthalen-2-yl]oxy}butanoate], for which the IC50 lay in the range of 0.001 to 0.01 µM.

As to `O=C1CN(c2c(O)cc3ccc(CCO)cc3c2F)S(=O)(=O)N1` [Compound 175, 5-[1-fluoro-3-hydroxy-7-(2-hydroxyethyl)naphthalen-2-yl]-1λ^6,2,5-thiadiazolidine-1,1,3-trione, Ammonium Salt], the IC50 lay within 0.01 to 0.1 µM.

Take `N#CCCCCS(=O)(=O)N1CC=C(c2ccc3cc(O)c(N4CC(=O)NS4(=O)=O)c(F)c3c2)C1` [Compound 293, 5-{3-[8-fluoro-6-hydroxy-7-(1,1,4-trioxo-1λ^6,2,5-thiadiazolidin-2-yl)naphthalen-2-yl]-2,5-dihydro-1H-pyrrole-1-sulfonyl}pentanenitrile]: the IC50 was below 0.001 µM.

In the case of `O=C1CN(c2c(O)cc3ccc(C4CCCNC4)cc3c2F)S(=O)(=O)N1` (centres unmarked) [Compound 191, 5-[1-fluoro-3-hydroxy-7-(piperidin-3-yl)naphthalen-2-yl]-1λ^6,2,5-thiadiazolidine-1,1,3-trione], the IC50 was in the range of 0.001 to 0.01 µM.

For `CCNCCCc1ccc2cc(O)c(N3CC(=O)NS3(=O)=O)c(F)c2c1` [Compound 140, 5-{7-[3-(ethylamino)propyl]-1-fluoro-3-hydroxynaphthalen-2-yl}-1λ^6,2,5-thiadiazolidine-1,1,3-trione], the IC50 was 0.001 to 0.01 µM.

As for `O=C1CN(c2c(O)cc3ccc(CC4CNC4)cc3c2F)S(=O)(=O)N1` [Compound 267, 5-{7-[(azetidin-3-yl)methyl]-1-fluoro-3-hydroxynaphthalen-2-yl}-1λ^6,2,5-thiadiazolidine-1,1,3-trione], the IC50 lay in the range of 0.01 to 0.1 µM.

As for `O=C1CN(c2c(O)c(Br)c3ccc(C4=CCN(S(=O)(=O)C5CC5)C4)cc3c2F)S(=O)(=O)N1` [Compound 231A, 5-{4-bromo-7-[1-(cyclopropanesulfonyl)-2,5-dihydro-1H-pyrrol-3-yl]-1-fluoro-3-hydroxynaphthalen-2-yl}-1λ^6,2,5-thiadiazolidine-1,1,3-trione], the IC50 was 0.001 to 0.01 µM.

For the molecule `O=C1CN(c2c(O)cc3ccc(C4=CCN(S(=O)(=O)CCC(F)(F)F)C4)cc3c2F)S(=O)(=O)N1` [Compound 287, 5-{1-fluoro-3-hydroxy-7-[1-(3,3,3-trifluoropropane-1-sulfonyl)-2,5-dihydro-1H-pyrrol-3-yl]naphthalen-2-yl}-1λ^6,2,5-thiadiazolidine-1,1,3-trione], the IC50 is below 0.001 µM.

In the case of `O=C1CN(c2c(O)cc3ccc(C(=O)NCC4CC4)cc3c2F)S(=O)(=O)N1` [Compound 136, N-(cyclopropylmethyl)-8-fluoro-6-hydroxy-7-(1,1,4-trioxo-1λ^6,2,5-thiadiazolidin-2-yl)naphthalene-2-carboxamide], the IC50 lay within 0.001 to 0.01 µM.

Turning to `O=C1CN(c2c(O)cc3ccc(OCCNCCOC(F)(F)F)cc3c2F)S(=O)(=O)N1` [Compound 137, 5-[1-fluoro-3-hydroxy-7-(2-{[2-(trifluoromethoxy)ethyl]amino}ethoxy)naphthalen-2-yl]-1λ^6,2,5-thiadiazolidine-1,1,3-trione], the IC50 was in the range of 0.001 to 0.01 µM.

Turning to `CC(C)CN(C)CCOc1ccc2cc(O)c(N3CC(=O)NS3(=O)=O)c(F)c2c1` [Compound 253, 5-(1-fluoro-3-hydroxy-7-{2-[methyl(2-methylpropyl)amino]ethoxy}naphthalen-2-yl)-1λ^6,2,5-thiadiazolidine-1,1,3-trione], the IC50 is 0.001 to 0.01 µM.

On to `CCNC(=O)NCCOc1ccc2cc(O)c(N3CC(=O)NS3(=O)=O)c(F)c2c1` [Compound 270, N-ethyl-N′-(2-{[8-fluoro-6-hydroxy-7-(1,1,4-trioxo-1λ^6,2,5-thiadiazolidin-2-yl)naphthalen-2-yl]oxy}ethyl)urea], for which the half-inhibitory concentration (IC50) was in the range of 0.001 to 0.01 µM.

On to `CC(C)COc1ccc2cc(O)c(N3CC(=O)NS3(=O)=O)c(F)c2c1` [Compound 134, 5-[1-fluoro-3-hydroxy-7-(2-methylpropoxy)naphthalen-2-yl]-1λ^6,2,5-thiadiazolidine-1,1,3-trione], for which the IC50 was above 0.1 µM.

Turning to `Cc1c[nH]c(-c2ccc3cc(O)c(N4CC(=O)NS4(=O)=O)c(F)c3c2)n1` [Compound 225, 5-[1-fluoro-3-hydroxy-7-(4-methyl-1H-imidazol-2-yl)naphthalen-2-yl]-1λ^6,2,5-thiadiazolidine-1,1,3-trione], the IC50 fell in the range of 0.01 to 0.1 µM.

For `O=C1CN(c2c(O)cc3ccc(CC(F)F)cc3c2F)S(=O)(=O)N1` [Compound 196, 5-[7-(2,2-difluoroethyl)-1-fluoro-3-hydroxynaphthalen-2-yl]-1λ^6,2,5-thiadiazolidine-1,1,3-trione], the IC50 was 0.001 to 0.01 µM.

As for `CCCCS(=O)(=O)N1CC=C(c2ccc3cc(O)c(N4CC(=O)NS4(=O)=O)c(F)c3c2)C1` [Compound 291, 5-{7-[1-(butane-1-sulfonyl)-2,5-dihydro-1H-pyrrol-3-yl]-1-fluoro-3-hydroxynaphthalen-2-yl}-1λ^6,2,5-thiadiazolidine-1,1,3-trione], the IC50 was below 0.001 µM.

`O=C1CN(c2c(O)cc3ccc(C4=CCN(S(=O)(=O)C5CCC5)C4)cc3c2F)S(=O)(=O)N1` [Compound 316, 5-{7-[1-(cyclobutanesulfonyl)-2,5-dihydro-1H-pyrrol-3-yl]-1-fluoro-3-hydroxynaphthalen-2-yl}-1λ^6,2,5-thiadiazolidine-1,1,3-trione]: the IC50 is below 0.001 µM.

Take `N#Cc1c[nH]c(-c2ccc3cc(O)c(N4CC(=O)NS4(=O)=O)c(F)c3c2)n1` [Compound 321, 2-[8-fluoro-6-hydroxy-7-(1,1,4-trioxo-1λ^6,2,5-thiadiazolidin-2-yl)naphthalen-2-yl]-1H-imidazole-4-carbonitrile]: the IC50 was in the range of 0.001 to 0.01 µM.

Regarding `CCP(=O)(CC)CCCOc1ccc2cc(O)c(N3CC(=O)NS3(=O)=O)c(F)c2c1` [Compound 146, 5-{7-[3-(diethylphosphoryl)propoxy]-1-fluoro-3-hydroxynaphthalen-2-yl}-1λ^6,2,5-thiadiazolidine-1,1,3-trione], the IC50 lay within 0.001 to 0.01 µM.

With `O=C1CN(c2c(O)cc3ccc(C4=CCN(S(=O)(=O)c5ccccc5)C4)cc3c2F)S(=O)(=O)N1` [Compound 315, 5-{7-[1-(benzenesulfonyl)-2,5-dihydro-1H-pyrrol-3-yl]-1-fluoro-3-hydroxynaphthalen-2-yl}-1λ^6,2,5-thiadiazolidine-1,1,3-trione], the IC50 is below 0.001 µM.

In the case of `CC(C)CCNc1ccc2c(F)c(O)c(N3CC(=O)NS3(=O)=O)c(F)c2c1` [Compound 148, 5-{1,4-difluoro-3-hydroxy-7-[(3-methylbutyl)amino]naphthalen-2-yl}-1λ^6,2,5-thiadiazolidine-1,1,3-trione], the IC50 lay in the range of 0.001 to 0.01 µM.

Regarding `O=C1CN(c2c(O)cc3ccc(C4CC4)cc3c2F)S(=O)(=O)N1` [Compound 236, 5-(7-cyclopropyl-1-fluoro-3-hydroxynaphthalen-2-yl)-1λ^6,2,5-thiadiazolidine-1,1,3-trione], the IC50 is 0.001 to 0.01 µM.
